Assay results taken from patent US20120322661A1, “Organized Liquid Mixture” (priority 2010, published 2012).

Test: Conductivity measurement for micellar entrapment of fomesafen sodium
Assay type: physicochemical
Conditions: aqueous solution
Procedure: A series of the experiments were conducted to establish that a combination of a sorbitan ester alkoxylate with a vegetable oil ethoxylate provided a stable micellar solubilization of the water soluble herbicide fomesafen sodium. Studies were also designed to confirm that the fomesafen sodium present within the formulation was partitioned between the micro-domains of the aqueous phase and the micellar oil phase.
The conductivity of an aqueous solution of fomesafen sodium was measured at different concentrations of fomesafen sodium. The results were plotted on a graph with measured conductivity plotted on Y-axis and the corresponding concentration on the X-axis. It was observed that the conductivity increased with the salt concentration and dropped suddenly above 0.45 g/L. It is believed that at this inflection concentration, fomesafen sodium self-aggregated to form an aggregated structure.
In another series of experiments, the formulations according to the present invention exemplified by examples 1 and 2 were tested at various concentrations of fomesafen sodium active ingredients and the resulting conductivity was measured. The results were plotted on a graph with measured conductivity plotted on Y-axis and the corresponding concentration on the X-axis. […]

CS(=O)(=O)N=C([O-])c1cc(Oc2ccc(C(F)(F)F)cc2Cl)ccc1[N+](=O)[O-].[Na+] [fomesafen sodium, sodium (EZ)-5-(2-chloro-α,α,α-trifluoro-p-tolyloxy)-N-mesyl-2-nitrobenzenecarboximidate]
Concentration above which conductivity dropped suddenly (inflection concentration, self-aggregation): above 0.45 g/L
